In patent US20120003303A1, “ORAL ENTERIC ANTIDEPRESSANT FORMULATION” (CeNeRx Biopharma, Inc, priority 2009, published 2012):
Read-outs that look alike come from different tables or passages of the source.

Tests used:
MAO-B = target: T1, MAO-B (Homo sapiens, UniProt P27338); assay: inhibitory action on MAO-B (statement, no method given); type: biochemical
T1 sequence (P27338 1-520): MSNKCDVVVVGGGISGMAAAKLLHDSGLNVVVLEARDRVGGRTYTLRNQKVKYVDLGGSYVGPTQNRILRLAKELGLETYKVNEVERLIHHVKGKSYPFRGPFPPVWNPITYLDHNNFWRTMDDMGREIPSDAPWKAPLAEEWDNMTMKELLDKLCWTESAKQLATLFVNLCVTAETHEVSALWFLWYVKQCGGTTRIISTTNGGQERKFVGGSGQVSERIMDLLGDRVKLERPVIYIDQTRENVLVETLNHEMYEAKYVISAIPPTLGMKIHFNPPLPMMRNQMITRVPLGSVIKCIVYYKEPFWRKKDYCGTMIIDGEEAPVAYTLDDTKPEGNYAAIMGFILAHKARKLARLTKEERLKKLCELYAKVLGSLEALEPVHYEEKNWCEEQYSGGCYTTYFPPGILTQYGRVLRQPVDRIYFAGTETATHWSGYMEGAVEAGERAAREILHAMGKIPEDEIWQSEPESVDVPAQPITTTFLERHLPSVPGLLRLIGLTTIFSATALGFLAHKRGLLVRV

[1] = human plasma pharmacokinetics of orally administered tyramine; type: in vivo
Source text: Such pharmaceutical formulations are manufactured in such a way that the product passes unchanged through the stomach of the patient, and dissolves and releases the active ingredient when it leaves the stomach and enters the middle and lower portions of the small intestine. Such formulations can be in tablet or pellet form, where the active ingredient is in the inner part of the tablet or pellet and is enclosed in a film or envelope, the “enteric coating,” which is insoluble in acid environments, such as the stomach, but is soluble in near-neutral environments such as the small intestine.

Row | SMILES | inhibitory actions on MAO-B (MAO-B) | time after dosing at which non-detectable levels observed ([1]; human plasma, tyramine with food in a capsule, oral dose of 200 mg) [h] | Tmax ([1]; human plasma, tyramine with food in a capsule, oral dose of 200 mg, read-out: Tmax) [h] | Tmax ([1]; human, plasma, oral, 200 mg, dietary tyramine, absorbed and metabolized in stomach, upper small intestine and liver, read-out: average Tmax) [h]
1 | O=S1(=O)c2ccc(F)cc2Oc2cc(OCC(F)(F)F)ccc21 [CX157, 3-fluoro-7-(2,2,2-trifluoroethoxy)phenoxathiin 10,10-dioxide] | devoid of inhibitory actions on MAO-B |  |  | 
2 | NCCc1ccc(O)cc1 [tyramine] |  | 3 to 4 | ≤ 1.25 | 1.25
